Earlier results as cited in patent US5431925A, “Nutritive composition for prevention and therapy of infection diseases caused by immunosuppression” (Snow Brand Milk Products Co., Ltd., priority 1991, dated 1995).

Details: mouse

## CC1=C(/C=C/C(C)=C/C=C/C(C)=C/CO)C(C)(C)CCC1 [retinol]
  LD50: ≥ 4,100 mg/kg

## CC1=C(/C=C/C(C)=C/C=C/C(C)=C/C(=O)O)C(C)(C)CCC1 [retinoic acid]
  LD50: ≥ 4,000 mg/kg
